System: MV-4-11 cells
Test: Gene expression microarray analysis (Affymetrix PrimeView) and GSEA
Format: cell-based, human
Set-up: RFU PODN (11730768_x_at) / Fold change /veh PODN (11730768_x_at) / RFU LINC00158 (11744669_a_at) / Fold change /veh LINC00158 (11744669_a_at) / RFU DUSP10 (11751237_a_at) / Fold change /veh DUSP10 (11751237_a_at) / RFU ID3 (11757404_x_at) / Fold change /veh ID3 (11757404_x_at) / RFU PLEKHG5 (11737974_s_at) / Fold change /veh PLEKHG5 (11737974_s_at) / RFU LRRC4B (11730491_at) / Fold change /veh LRRC4B (11730491_at) / RFU GIMAP4 (11747438_a_at) / Fold change /veh GIMAP4 (11747438_a_at) / RFU KRT8 (11758183_x_at) / Fold change /veh KRT8 (11758183_x_at) / RFU CNN1 (11734310_a_at) / Fold change /veh CNN1 (11734310_a_at) / RFU VPS37D (11726825_at) / Fold change /veh VPS37D (11726825_at) / RFU C10orf10 (11716522_x_at) / Fold change /veh C10orf10 (11716522_x_at) / RFU KIR2DL2 /// KIR2DL4 /// KIR2DL5A /// KIR2DL5B /// KIR2DS1 /// KIR2DS2 /// KIR2DS3 /// KIR2DS4 /// KIR3DL3 /// KIR3DL3 /// KIR3DS1 (11738374_at) / Fold change /veh KIR2DL2 /// KIR2DL4 /// KIR2DL5A /// KIR2DL5B /// KIR2DS1 /// KIR2DS2 /// KIR2DS3 /// KIR2DS4 /// KIR3DL3 /// KIR3DL3 /// KIR3DS1 (11738374_at) / RFU C1QL1 (11718748_at) / Fold change /veh C1QL1 (11718748_at) / RFU TMPRSS4 (11747572_a_at) / Fold change /veh TMPRSS4 (11747572_a_at) / RFU HAMP (11756126_x_at) / Fold change /veh HAMP (11756126_x_at) / RFU RNFT2 (11725882_a_at) / Fold change /veh RNFT2 (11725882_a_at) / RFU NR4A2 (11747474_a_at) / Fold change /veh NR4A2 (11747474_a_at) / RFU ABCC12 (11746883_a_at) / Fold change /veh ABCC12 (11746883_a_at) / RFU TMEM136 (11760407_x_at) / Fold change /veh TMEM136 (11760407_x_at) / RFU CLDN22 /// WWC2 (11732394_at) / Fold change /veh CLDN22 /// WWC2 (11732394_at) / RFU HLA-DPB1 (11760878_x_at) / Fold change /veh HLA-DPB1 (11760878_x_at) / RFU SPINT1 (11716480_a_at) / Fold change /veh SPINT1 (11716480_a_at) / RFU GAP43 (11754022_s_at) / Fold change /veh GAP43 (11754022_s_at) / RFU A4GNT (11735810_at) / Fold change /veh A4GNT (11735810_at) / RFU PRB3 (11715151_x_at) / Fold change /veh PRB3 (11715151_x_at) / RFU TUBB4B (11761932_at) / Fold change /veh TUBB4B (11761932_at) / RFU CAPN14 (11732068_a_at) / Fold change /veh CAPN14 (11732068_a_at) / RFU TMCC2 (11721928_a_at) / Fold change /veh TMCC2 (11721928_a_at) / RFU IRGQ (11745062_a_at) / Fold change /veh IRGQ (11745062_a_at) / RFU FAM174B (11720279_a_at) / Fold change /veh FAM174B (11720279_a_at) / RFU TMPRSS4 (11748680_a_at) / Fold change /veh TMPRSS4 (11748680_a_at) / RFU FAM212B (11763350_a_at) / Fold change /veh FAM212B (11763350_a_at) / RFU PLEKHG5 (11743358_a_at) / Fold change /veh PLEKHG5 (11743358_a_at) / RFU ZSCAN30 (11745921_a_at) / Fold change /veh ZSCAN30 (11745921_a_at) / RFU CMKLR1 (11741424_a_at) / Fold change /veh CMKLR1 (11741424_a_at) / RFU LOC101060620 /// MAPK8IP1 (11723275_at) / Fold change /veh LOC101060620 /// MAPK8IP1 (11723275_at) / RFU SPTSSB (11747773_x_at) / Fold change /veh SPTSSB (11747773_x_at) / RFU PRSS12 (11739890_at) / Fold change /veh PRSS12 (11739890_at) / RFU BIN1 (11741810_x_at) / Fold change /veh BIN1 (11741810_x_at) / RFU WNT11 (11732464_a_at) / Fold change /veh WNT11 (11732464_a_at) / RFU C10orf10 (11716521_a_at) / Fold change /veh C10orf10 (11716521_a_at) / RFU C5orf56 (11738089_at) / Fold change /veh C5orf56 (11738089_at) / RFU CYB561 (11721691_x_at) / Fold change /veh CYB561 (11721691_x_at) / RFU ANKRD19P (11752326_a_at) / Fold change /veh ANKRD19P (11752326_a_at) / RFU OR2T12 /// OR2T33 /// OR2T8 (11738714_s_at) / Fold change /veh OR2T12 /// OR2T33 /// OR2T8 (11738714_s_at) / RFU VCAN (11748164_a_at) / Fold change /veh VCAN (11748164_a_at) / RFU JSRP1 (11732532_at) / Fold change /veh JSRP1 (11732532_at) / RFU KRTAP10-11 (11738290_x_at) / Fold change /veh KRTAP10-11 (11738290_x_at) / RFU MYO3A (11730013_a_at) / Fold change /veh MYO3A (11730013_a_at) / RFU EBF3 (11725865_a_at) / Fold change /veh EBF3 (11725865_a_at) / RFU CAMK2N1 (11719241_x_at) / Fold change /veh CAMK2N1 (11719241_x_at) / RFU C5orf56 (11738088_a_at) / Fold change /veh C5orf56 (11738088_a_at) / RFU OLFML3 (11715873_a_at) / Fold change /veh OLFML3 (11715873_a_at) / RFU LOC100653217 /// NTM (11731650_a_at) / Fold change /veh LOC100653217 /// NTM (11731650_a_at) / RFU MAPK11 (11762145_a_at) / Fold change /veh MAPK11 (11762145_a_at) / RFU FIZ1 (11724087_x_at) / Fold change /veh FIZ1 (11724087_x_at) / RFU OASL (11726364_x_at) / Fold change /veh OASL (11726364_x_at) / RFU SOX15 (11748057_x_at) / Fold change /veh SOX15 (11748057_x_at) / RFU CD79A (11719716_a_at) / Fold change /veh CD79A (11719716_a_at) / RFU HIST1H1D (11736915_at) / Fold change /veh HIST1H1D (11736915_at) / RFU CASKIN2 (11723855_a_at) / Fold change /veh CASKIN2 (11723855_a_at) / RFU LOC730098 (11760151_x_at) / Fold change /veh LOC730098 (11760151_x_at) / RFU OR4N2 (11742367_at) / Fold change /veh OR4N2 (11742367_at) / RFU PRRT2 (11749266_a_at) / Fold change /veh PRRT2 (11749266_a_at) / RFU SNX32 (11753110_a_at) / Fold change /veh SNX32 (11753110_a_at) / RFU CDHR5 (11726645_a_at) / Fold change /veh CDHR5 (11726645_a_at) / RFU RCAN1 (11760418_a_at) / Fold change /veh RCAN1 (11760418_a_at) / RFU FAM167A (11723789_a_at) / Fold change /veh FAM167A (11723789_a_at) / RFU FAM26E (11764081_at) / Fold change /veh FAM26E (11764081_at) / RFU ISYNA1 (11749810_s_at) / Fold change /veh ISYNA1 (11749810_s_at) / RFU ACY1 (11761880_at) / Fold change /veh ACY1 (11761880_at) / RFU 11764098_at / Fold change /veh 11764098_at / RFU SAMD14 (11745864_x_at) / Fold change /veh SAMD14 (11745864_x_at) / RFU NPB (11741838_a_at) / Fold change /veh NPB (11741838_a_at) / RFU TMPRSS6 (11731388_a_at) / Fold change /veh TMPRSS6 (11731388_a_at) / RFU KRTAP10-2 (11738614_at) / Fold change /veh KRTAP10-2 (11738614_at) / RFU ARHGAP8 /// PRR5-ARHGAP8 (11727945_x_at) / Fold change /veh ARHGAP8 /// PRR5-ARHGAP8 (11727945_x_at) / RFU KRTAP5-7 /// NADSYN1 (11734609_at) / Fold change /veh KRTAP5-7 /// NADSYN1 (11734609_at) / RFU RASL12 (11751679_a_at) / Fold change /veh RASL12 (11751679_a_at) / RFU CDKN2B (11736163_a_at) / Fold change /veh CDKN2B (11736163_a_at) / RFU PRF1 (11729649_at) / Fold change /veh PRF1 (11729649_at) / RFU, ZNF638 /// ZNF638-IT1 / Fold change vs veh, ZNF638 /// ZNF638-IT1 / RFU, PANK3 / Fold change vs veh, PANK3 / RFU, SH3YL1 / Fold change vs veh, SH3YL1 / RFU, ZEB2 / Fold change vs veh, ZEB2 / RFU, NRIP1 / Fold change vs veh, NRIP1 / RFU, PTTG1IP / Fold change vs veh, PTTG1IP / RFU, CAPN2 / Fold change vs veh, CAPN2 / RFU, MED14 / Fold change vs veh, MED14 / RFU, SNORA58 / Fold change vs veh, SNORA58 / RFU, C1orf63 / Fold change vs veh, C1orf63 / RFU, LRRFIP1 / Fold change vs veh, LRRFIP1 / RFU, NDUFAF7 / Fold change vs veh, NDUFAF7 / RFU, SLC12A2 / Fold change vs veh, SLC12A2 / RFU, IBTK / Fold change vs veh, IBTK / RFU, ESF1 / Fold change vs veh, ESF1 / Fold change vs veh, TMEM50B / RFU, TAOK1 / Fold change vs veh, TAOK1 / RFU, ACBD3 / Fold change vs veh, ACBD3 / RFU, TMA16 / Fold change vs veh, TMA16 / RFU, RWDD3 / Fold change vs veh, RWDD3 / RFU, BCAT1 / Fold change vs veh, BCAT1 / RFU, EDEM3 / Fold change vs veh, EDEM3 / RFU, TMEM33 / Fold change vs veh, TMEM33 / RFU, WDR75 / Fold change vs veh, WDR75 / RFU, AHCTF1 / Fold change vs veh, AHCTF1 / RFU, TFRC / Fold change vs veh, TFRC / RFU, ZDHHC17 / Fold change vs veh, ZDHHC17 / RFU, NOM1 / Fold change vs veh, NOM1 / RFU, ARL8B / Fold change vs veh, ARL8B / RFU, ZBTB11 / Fold change vs veh, ZBTB11 / RFU, TAMM41 / Fold change vs veh, TAMM41 / RFU, KIAA1704 /// LOC100996395 / Fold change vs veh, KIAA1704 /// LOC100996395 / RFU, ING1 / Fold change vs veh, ING1 / RFU, TRMT61B / Fold change vs veh, TRMT61B / RFU, FUBP3 / Fold change vs veh, FUBP3 / RFU, TP53 / Fold change vs veh, TP53 / RFU, TNKS2 / Fold change vs veh, TNKS2 / RFU, ZFP14 / Fold change vs veh, ZFP14 / RFU, ACTR2 / Fold change vs veh, ACTR2 / RFU, PPP3R1 / Fold change vs veh, PPP3R1 / RFU, PIK3R1 / Fold change vs veh, PIK3R1 / RFU, HNRNPA1 / Fold change vs veh, HNRNPA1 / RFU, RNF170 / Fold change vs veh, RNF170 / RFU, ZNF28 / Fold change vs veh, ZNF28 / RFU, RNGTT / Fold change vs veh, RNGTT / RFU, OGT / Fold change vs veh, OGT / RFU, BRD1 / Fold change vs veh, BRD1 / RFU, MARS / Fold change vs veh, MARS / RFU, ZNF655 / Fold change vs veh, ZNF655 / RFU, FAHD1 / Fold change vs veh, FAHD1 / RFU, BDP1 / Fold change vs veh, BDP1 / RFU, LRRCC1 / Fold change vs veh, LRRCC1 / RFU, ARID1A / Fold change vs veh, ARID1A / RFU, ZNF146 / Fold change vs veh, ZNF146 / RFU, ZNF330 / Fold change vs veh, ZNF330 / RFU, GPN3 / Fold change vs veh, GPN3 / RFU, C9orf123 / Fold change vs veh, C9orf123 / RFU, N4BP2L2 / Fold change vs veh, N4BP2L2 / RFU, ARFIP1 / Fold change vs veh, ARFIP1 / RFU, FAM179B / Fold change vs veh, FAM179B / RFU, BCL10 / Fold change vs veh, BCL10 / RFU, UHRF1BP1L / Fold change vs veh, UHRF1BP1L / RFU, BET1 / Fold change vs veh, BET1 / RFU, CNOT2 / Fold change vs veh, CNOT2 / RFU, ZNF268 / Fold change vs veh, ZNF268 / Fold change vs veh, ZNF507 / RFU, DGCR2 / Fold change vs veh, DGCR2 / RFU, WDSUB1 / Fold change vs veh, WDSUB1 / Fold change vs veh, HSP90B1 /// MIR3652 / RFU, ADSS / Fold change vs veh, ADSS / RFU, GK / Fold change vs veh, GK / RFU, ZNF148 / Fold change vs veh, ZNF148 / RFU, TAF9 / Fold change vs veh, TAF9 / RFU, SLC1A5 / Fold change vs veh, SLC1A5 / RFU, SLMO2 / Fold change vs veh, SLMO2 / RFU, ABCC4 / Fold change vs veh, ABCC4 / RFU, LOC101060439 /// RAP1B / Fold change vs veh, LOC101060439 /// RAP1B / RFU, RFX7 / Fold change vs veh, RFX7 / RFU, GTPBP10 / Fold change vs veh, GTPBP10 / RFU, CNEP1R1 / Fold change vs veh, CNEP1R1 / RFU, BIVM-ERCC5 /// ERCC5 / Fold change vs veh, BIVM-ERCC5 /// ERCC5 / RFU, ILF3 / Fold change vs veh, ILF3 / RFU 11762660_at / Fold change /veh 11762660_at / RFU VCAN (11757783_s_at) / Fold change /veh VCAN (11757783_s_at) / RFU DDX43 (11728927_at) / Fold change /veh DDX43 (11728927_at) / RFU KRT8 (11758188_x_at) / Fold change /veh KRT8 (11758188_x_at) / RFU NKD1 (11759106_at) / Fold change /veh NKD1 (11759106_at) / RFU SRD5A1 (11742802_a_at) / Fold change /veh SRD5A1 (11742802_a_at) / RFU TPSAB1 /// TPSB2 (11721975_s_at) / Fold change /veh TPSAB1 /// TPSB2 (11721975_s_at) / RFU GSTM3 (11746129_a_at) / Fold change /veh GSTM3 (11746129_a_at) / RFU IL23R (11737362_x_at) / Fold change /veh IL23R (11737362_x_at) / RFU TMEM51 (11727254_a_at) / Fold change /veh TMEM51 (11727254_a_at) / RFU PIWIL2 (11732686_x_at) / Fold change /veh PIWIL2 (11732686_x_at) / RFU ORM1 (11744905_x_at) / Fold change /veh ORM1 (11744905_x_at) / RFU CCDC152 (11743942_at) / Fold change /veh CCDC152 (11743942_at) / RFU ECM1 (11717891_a_at) / Fold change /veh ECM1 (11717891_a_at) / RFU IL23R (11748794_a_at) / Fold change /veh IL23R (11748794_a_at) / RFU TNFAIP8L3 (11732012_x_at) / Fold change /veh TNFAIP8L3 (11732012_x_at) / RFU MBOAT4 (11741988_at) / Fold change /veh MBOAT4 (11741988_at) / RFU 11764193_at / Fold change /veh 11764193_at / RFU TMEM53 (11763286_at) / Fold change /veh TMEM53 (11763286_at) / RFU MAGEB2 (11727129_at) / Fold change /veh MAGEB2 (11727129_at) / RFU TMEM200A (11744735_a_at) / Fold change /veh TMEM200A (11744735_a_at) / RFU CCDC152 (11751479_a_at) / Fold change /veh CCDC152 (11751479_a_at) / RFU FAM211A (11726209_a_at) / Fold change /veh FAM211A (11726209_a_at) / RFU RGS16 (11746705_a_at) / Fold change /veh RGS16 (11746705_a_at) / RFU VCAN (11755009_s_at) / Fold change /veh VCAN (11755009_s_at) / RFU RHOB (11743442_s_at) / Fold change /veh RHOB (11743442_s_at) / RFU RGS16 (11720943_a_at) / Fold change /veh RGS16 (11720943_a_at) / RFU RGS16 (11720944_at) / Fold change /veh RGS16 (11720944_at) / RFU, VPS4B / Fold change vs veh, VPS4B / RFU, CREB1 / Fold change vs veh, CREB1 / RFU, DNAJC13 / Fold change vs veh, DNAJC13 / RFU, GNAQ / Fold change vs veh, GNAQ / RFU, CDK5R1 / Fold change vs veh, CDK5R1 / RFU, ZRANB3 / Fold change vs veh, ZRANB3 / RFU, CUL4A / Fold change vs veh, CUL4A / RFU, CCNY / Fold change vs veh, CCNY / RFU, UFL1 / Fold change vs veh, UFL1 / RFU, COG3 / Fold change vs veh, COG3 / RFU, DIAPH2 / Fold change vs veh, DIAPH2 / RFU, SKA2 / Fold change vs veh, SKA2 / RFU, AFF3 / Fold change vs veh, AFF3 / RFU, LMF1 / Fold change vs veh, LMF1 / RFU, IPO11 / Fold change vs veh, IPO11 / RFU, DFFB / Fold change vs veh, DFFB / RFU, FOXP1 / Fold change vs veh, FOXP1 / RFU, CARD8 / Fold change vs veh, CARD8 / RFU, STRN3 / Fold change vs veh, STRN3 / RFU, ADK / Fold change vs veh, ADK / RFU, RASSF2 / Fold change vs veh, RASSF2 / RFU, WIPF1 / Fold change vs veh, WIPF1 / RFU, LARP1B / Fold change vs veh, LARP1B / RFU, RASA1 / Fold change vs veh, RASA1 / RFU, RB1 / Fold change vs veh, RB1 / RFU, PPFIA1 / Fold change vs veh, PPFIA1 / RFU, MAT2A / Fold change vs veh, MAT2A / RFU, CCT5 / Fold change vs veh, CCT5 / RFU, WDR92 / Fold change vs veh, WDR92 / RFU, CUX1 / Fold change vs veh, CUX1 / RFU, TTC7A / Fold change vs veh, TTC7A / RFU, TMEM135 / Fold change vs veh, TMEM135 / RFU, DEPTOR / Fold change vs veh, DEPTOR / RFU, CPM / Fold change vs veh, CPM / RFU, DNAJB6 / Fold change vs veh, DNAJB6 / RFU, CACNA2D3 / Fold change vs veh, CACNA2D3 / RFU, DTX4 / Fold change vs veh, DTX4 / RFU, TFCP2 / Fold change vs veh, TFCP2 / RFU, GMCL1 /// GMCL1P1 / Fold change vs veh, GMCL1 /// GMCL1P1 / RFU, AEBP2 / Fold change vs veh, AEBP2 / RFU, SNHG1 /// SNORD22 /// SNORD25 /// SNORD26 /// SNORD27 /// SNORD28 /// SNORD29 /// SNORD31 / Fold change vs veh, SNHG1 /// SNORD22 /// SNORD25 /// SNORD26 /// SNORD27 /// SNORD28 /// SNORD29 /// SNORD31 / Fold change (Aza/veh), C12orf56 (ProbeSet 11735607_a_at) / Fold change (ACY-1035/veh), C12orf56 (ProbeSet 11735607_a_at) / Fold change (Aza/veh), FGFR1OP (ProbeSet 11751329_s_at) / Fold change (ACY-1035/veh), FGFR1OP (ProbeSet 11751329_s_at) / Fold change (Aza/veh), VPS36 (ProbeSet 11739960_a_at) / Fold change (ACY-1035/veh), VPS36 (ProbeSet 11739960_a_at) / RFU SYPL1 (11715823_x_at) / Fold change /veh SYPL1 (11715823_x_at) / RFU IGFBP7 (11715501_s_at) / Fold change /veh IGFBP7 (11715501_s_at) / RFU REEP3 (11722064_at) / Fold change /veh REEP3 (11722064_at) / RFU IGLL1 (11728026_x_at) / Fold change /veh IGLL1 (11728026_x_at): dose or concentration left out as unconfirmed
Details: ProbeSet 11764057_s_at; LIST B

Nc1ccc(-c2cccs2)cc1NC(=O)c1ccc2c(c1)cc(C1CC1)n2CCN1CCOCC1 [ACY-1035]
Fold change vs veh, C1orf63: 0.95

— article PMC5218480 (PLoS ONE, 2017)
